Data published in BindingDB's records for doi:10.1021/jm050113z (University of North Carolina at Chapel Hill, 2005).

Target: T1, Protein RecA (Escherichia coli (strain K12), UniProt P0A7G6)
T1 sequence (P0A7G6 whole entry): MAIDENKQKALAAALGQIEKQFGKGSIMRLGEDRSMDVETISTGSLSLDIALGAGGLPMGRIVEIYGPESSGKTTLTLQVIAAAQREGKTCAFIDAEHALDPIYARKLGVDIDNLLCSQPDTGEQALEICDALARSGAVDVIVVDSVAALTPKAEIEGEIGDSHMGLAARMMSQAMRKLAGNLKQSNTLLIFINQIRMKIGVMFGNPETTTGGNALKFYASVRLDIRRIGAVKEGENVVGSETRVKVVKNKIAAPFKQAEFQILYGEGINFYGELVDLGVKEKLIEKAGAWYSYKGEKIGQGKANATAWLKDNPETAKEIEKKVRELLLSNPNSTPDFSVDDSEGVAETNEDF
Assay: In vitro apparent inhibition constant against Escherichia coli RecA protein

In the case of O=P(O)(O)OP(=O)(O)OC[C@H]1O[C@@H](n2cnc3c(Nc4cccc5ccccc45)ncnc32)[C@H](O)[C@@H]1O, the Ki is reported as 46 µM.
